Laboratory results published in ChEMBL document CHEMBL4706476, “Novel Tetrahydropyrido[4,3-d]pyrimidines as Potent Inhibitors of Chaperone Heat Shock Protein 90” (J Med Chem, 2016).
≈ marks a conversion by molar mass, not a printed value. Calls of active or inactive are those of the source. No cut-off for these calls is given here.

Experiments:
CYP3A4 = CYP3A4 (Homo sapiens, UniProt P08684); test: Inhibition of CYP3A4 in human liver microsomes at 10 uM using midazolam as substrate preincubated for 5 mins followed by NADPH addition and measured after 20 mins by LC-MS/MS analysis relative to control; type: ADME; settings: probe midazolam, time 25 min
[1] = target: Heat shock protein HSP 90-alpha (Homo sapiens, UniProt P07900); test: Displacement of FITC-geldanamycin from N-terminal HSP90alpha (unknown origin) after 30 mins by fluorescence polarization competitive binding assay
[2] = Permeability of the compound at pH 7.4 by PAMPA; type: ADME; settings: read-out: permeability
Endoplasmin = Endoplasmin (Homo sapiens, UniProt P14625); test: Displacement of FITC-geldanamycin from N-terminal GRP94 (unknown origin) after 30 mins by fluorescence polarization competitive binding assay
[3] = Selectivity ratio of IC50 for inhibition of FITC-geldanamycin binding to N-terminal GRP94 (unknown origin) to IC50 for inhibition of FITC-geldanamycin binding to N-terminal HSP90alpha (unknown origin)
MDA-MB-231 = test: Antiproliferative activity against human MDA-MB-231 assessed as reduction in cell viability incubated for 72 hrs by MTT assay; type: functional, cell-based; settings: MDA-MB-231, 72 h
MDA-MB-468 = test: Antiproliferative activity against human MDA-MB-468 assessed as reduction in cell viability incubated for 72 hrs by MTT assay; type: functional, cell-based; settings: MDA-MB-468, 72 h
SK-BR-3 = test: Antiproliferative activity against human SK-BR-3 assessed as reduction in cell viability incubated for 72 hrs by MTT assay; type: functional, cell-based; settings: SK-BR-3, 72 h
T47D = test: Antiproliferative activity against human T47D assessed as reduction in cell viability incubated for 72 hrs by MTT assay; type: functional, cell-based
BT-474 = test: Antiproliferative activity against human BT-474 assessed as reduction in cell viability incubated for 72 hrs by MTT assay; type: functional, cell-based; settings: BT-474, 72 h
U2OS = test: Antiproliferative activity against human U2OS assessed as reduction in cell viability incubated for 72 hrs by MTT assay; type: functional, cell-based
MKN-28 = test: Antiproliferative activity against human MKN-28 assessed as reduction in cell viability incubated for 72 hrs by MTT assay; type: functional, cell-based; settings: MKN-28, 72 h
A549 = test: Antiproliferative activity against human A549 assessed as reduction in cell viability incubated for 72 hrs by MTT assay; type: functional, cell-based; settings: A549, 72 h
HepG2 = test: Antiproliferative activity against human HepG2 assessed as reduction in cell viability incubated for 72 hrs by MTT assay; type: functional, cell-based; settings: HepG2, 72 h
K562 = test: Antiproliferative activity against human K562 assessed as reduction in cell viability incubated for 72 hrs by MTT assay; type: functional, cell-based; settings: K562, 72 h
MV4-11 = test: Antiproliferative activity against human MV4-11 assessed as reduction in cell viability incubated for 72 hrs by MTT assay; type: functional, cell-based; settings: MV4-11, 72 h
L02 = test: Cytotoxicity against human L02 cells assessed as reduction in cell viability incubated for 72 hrs by MTT assay; type: cell-based; settings: L02, 72 h
HCT-116 [4] = test: Antitumor activity against human HCT-116 cells xenografted in nude mouse assessed as reduction in relative tumor volume by measuring T/C ratio at 60 mg/kg, ip administered every other day for 16 days and monitored every 3 days; type: functional; settings: time 16 day
HCT-116 [5] = test: cells; settings: Homo sapiens, HCT-116, 72 h
Description: Antiproliferative activity against human HCT-116 cells assessed as reduction in cell viability incubated for 72 hrs by MTT assay

MCF7 = test: cells; settings: Homo sapiens, MCF7, 72 h
[6] = target: T1, Heat shock protein HSP90 (Homo sapiens) (UniProt P07900+P08238); test: Inhibition of HSP90 in human HCT-116 cells assessed as reduction in AKT protein expression after 24 hrs by Western blot analysis; type: cell-based; settings: dose 0.01-3 µM
[7] = target: T1, Heat shock protein HSP90 (Homo sapiens); test: Inhibition of HSP90 in human HCT-116 cells assessed as reduction in Erk protein expression after 24 hrs by Western blot analysis; type: cell-based; settings: dose 0.01-3 µM
[8] = target: T1, Heat shock protein HSP90 (Homo sapiens); test: Inhibition of HSP90 in human HCT-116 cells assessed as reduction in phosphorylated Erk after 24 hrs by Western blot analysis; type: cell-based; settings: dose 0.01-3 µM
[9] = target: T1, Heat shock protein HSP90 (Homo sapiens); test: Inhibition of HSP90 in human HCT-116 cells assessed as induction of HSP70 expression after 24 hrs by Western blot analysis; type: cell-based; settings: dose 0.01-3 µM
Rattus norvegicus [10] = test: Ex vivo inhibition of HSP90 in Sprague-Dawley rat assessed as up regulation of HSP70 expression in retina at 20 mg/kg, iv administered for 2 consecutive days and measured 24 hrs post last dose by Western blot analysis; type: functional, organism-based; settings: time 3.0 day
Rattus norvegicus [11] = test: Ex vivo inhibition of HSP90 in Sprague-Dawley rat assessed as up regulation of HSP70 expression in retina at 20 mg/kg, iv administered for 2 consecutive days and measured 24 hrs post last dose by immunohistochemistry analysis; type: functional, organism-based; settings: time 3.0 day
HCT-116 [12] = test: Antitumor activity against human HCT-116 cells xenografted in nude mouse assessed as decrease in tumor cells at 40 to 60 mg/kg, ip administered every other day for 16 days by hematoxylin and eosin staining based assay; settings: dose 40-60 mg/kg, time 16.0 day
Mus musculus [13] = test: In vivo inhibition of HSP90 in nude mouse xenografted with human HCT-116 cells assessed as decrease in Akt protein level in tumor at 40 to 60 mg/kg, ip administered every other day for 16 days and measured after 12 hrs post last dose by Western blot analysis; settings: dose 40-60 mg/kg, time 16.0 day
Mus musculus [14] = test: In vivo inhibition of HSP90 in nude mouse xenografted with human HCT-116 cells assessed as decrease in Erk protein level in tumor at 40 to 60 mg/kg, ip administered every other day for 16 days and measured after 12 hrs post last dose by Western blot analysis; settings: dose 40-60 mg/kg, time 16.0 day
Mus musculus [15] = test: In vivo inhibition of HSP90 in nude mouse xenografted with human HCT-116 cells assessed as upregulation of HSP90 protein expression in tumor at 40 to 60 mg/kg, ip administered every other day for 16 days and measured after 12 hrs post last dose by Western blot analysis; settings: dose 40-60 mg/kg, time 16.0 day
Mus musculus [16] = test: In vivo inhibition of HSP90 in nude mouse xenografted with human HCT-116 cells assessed as upregulation of HSP70 protein expression in tumor at 40 to 60 mg/kg, ip administered every other day for 16 days and measured after 12 hrs post last dose by Western blot analysis; settings: dose 40-60 mg/kg, time 16.0 day
[17] = Distribution coefficient, logD of compound at pH 7.4; type: physicochemical; settings: octanol/water
[18] = Intrinsic aqueous solubility of the compound; type: physicochemical
[19] = Half life in human liver microsomes at 1 uM preincubated for 5 mins followed by NADPH addition and measured up to 120 mins by LC-MS/MS analysis; type: ADME, Microsome; settings: 2 h, time <=125 min
[20] = Intrinsic clearance in human liver microsomes at 1 uM preincubated for 5 mins followed by NADPH addition and measured up to 120 mins by LC-MS/MS analysis; type: ADME, Microsome; settings: 2 h, time <=125 min
[21] = Metabolic stability in human liver microsomes assessed as parent compound remaining at 1 uM preincubated for 5 mins followed by NADPH addition and measured up to 120 mins by LC-MS/MS analysis; type: ADME, Microsome; settings: 2 h, time <=125 min

Endoplasmin, sequence (P14625 whole entry): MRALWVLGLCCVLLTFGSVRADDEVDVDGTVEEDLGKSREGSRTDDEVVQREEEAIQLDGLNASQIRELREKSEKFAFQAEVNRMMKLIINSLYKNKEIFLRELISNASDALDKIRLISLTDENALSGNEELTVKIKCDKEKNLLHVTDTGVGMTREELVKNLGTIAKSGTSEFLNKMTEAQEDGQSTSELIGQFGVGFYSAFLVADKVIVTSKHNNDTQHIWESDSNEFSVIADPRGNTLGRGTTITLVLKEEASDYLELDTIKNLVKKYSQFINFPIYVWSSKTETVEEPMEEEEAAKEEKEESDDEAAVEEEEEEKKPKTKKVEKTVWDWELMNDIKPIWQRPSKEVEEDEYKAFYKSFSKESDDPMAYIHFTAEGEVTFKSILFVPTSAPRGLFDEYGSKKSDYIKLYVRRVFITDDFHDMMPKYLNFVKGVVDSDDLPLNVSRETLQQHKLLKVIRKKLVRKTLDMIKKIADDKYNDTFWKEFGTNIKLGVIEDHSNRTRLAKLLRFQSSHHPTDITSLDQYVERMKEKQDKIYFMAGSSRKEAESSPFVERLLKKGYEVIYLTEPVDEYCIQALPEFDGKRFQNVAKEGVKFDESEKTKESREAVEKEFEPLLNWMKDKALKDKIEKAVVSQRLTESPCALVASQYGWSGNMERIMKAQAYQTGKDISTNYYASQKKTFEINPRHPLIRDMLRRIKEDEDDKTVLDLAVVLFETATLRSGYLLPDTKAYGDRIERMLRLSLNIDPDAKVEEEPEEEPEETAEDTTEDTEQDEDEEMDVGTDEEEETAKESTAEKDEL
CYP3A4, sequence (P08684 whole entry): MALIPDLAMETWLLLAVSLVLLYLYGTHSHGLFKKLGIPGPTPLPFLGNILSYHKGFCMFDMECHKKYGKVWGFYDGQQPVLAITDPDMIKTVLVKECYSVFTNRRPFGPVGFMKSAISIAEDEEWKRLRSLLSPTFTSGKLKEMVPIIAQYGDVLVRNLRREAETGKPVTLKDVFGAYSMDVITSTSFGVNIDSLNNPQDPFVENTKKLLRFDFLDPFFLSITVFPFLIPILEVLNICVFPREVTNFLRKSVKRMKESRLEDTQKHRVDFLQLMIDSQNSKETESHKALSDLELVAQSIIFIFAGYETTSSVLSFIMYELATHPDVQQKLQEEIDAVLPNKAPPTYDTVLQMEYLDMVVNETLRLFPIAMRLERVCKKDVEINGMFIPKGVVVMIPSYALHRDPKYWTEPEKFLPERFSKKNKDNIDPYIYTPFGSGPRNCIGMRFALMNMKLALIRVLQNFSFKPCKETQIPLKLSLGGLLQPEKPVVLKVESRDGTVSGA

CC(=O)N1CCN(c2ccc(OCC3COC(Cn4ccnc4)(c4ccc(Cl)cc4Cl)O3)cc2)CC1 (centres undefined) [KETOCONAZOLE]
inhibition at 20 min, 10 µM (CYP3A4): 72%

CC(C)c1cc(C(=O)N2Cc3ccc(CN4CCN(C)CC4)cc3C2)c(O)cc1O [ONALESPIB]
IC50 [1]: 13 nM | Papp [2]: 74.3 ×10⁻⁶ cm/s | IC50 (Endoplasmin): 22 nM | Ratio IC50 [3]: 1.7 | IC50 (MDA-MB-231): 38 nM | IC50 (MDA-MB-468): 66 nM | IC50 (SK-BR-3): 71 nM | IC50 (T47D): 24 nM | IC50 (BT-474): 32 nM | IC50 (U2OS): 67 nM | IC50 (MKN-28): 129 nM | IC50 (A549): 50 nM | IC50 (HepG2): 18 nM | IC50 (K562): 38 nM | IC50 (MV4-11): 11 nM | IC50 (L02): 11600 nM | T/C (HCT-116 [4]): 21% | IC50 (HCT-116 [5]): 70 nM | IC50 (MCF7): 20 nM

CCNc1nc(OCCOC)nc2c1CN(C(=O)c1cc(C(C)C)c(O)cc1O)CC2
Ratio IC50 [3]: 26 | inhibition [6]: Dose-dependent effect | inhibition [7]: Dose-dependent effect | inhibition [8]: Dose-dependent effect | inhibition [9]: Dose-dependent effect | inhibition (Rattus norvegicus [10]): inactive | inhibition (Rattus norvegicus [11]): inactive | Activity (HCT-116 [12]): Active | inhibition (Mus musculus [13]): Active | inhibition (Mus musculus [14]): Active | inhibition (Mus musculus [15]): Active | inhibition (Mus musculus [16]): Active

CCCOc1nc(OCCOC)nc2c1CN(C(=O)c1cc(C(C)C)c(O)cc1O)CC2
logD [17]: 3.59 | IC50 [1]: 36 nM | Papp [2]: 87.7 ×10⁻⁶ cm/s | solubility [18]: 73.6 µg/mL (≈ 165 µM) | IC50 (Endoplasmin): 929 nM | Ratio IC50 [3]: 25.8 | IC50 (MDA-MB-231): 122 nM | IC50 (MDA-MB-468): 139 nM | IC50 (SK-BR-3): 220 nM | IC50 (T47D): 178 nM | IC50 (BT-474): 118 nM | IC50 (U2OS): 171 nM | IC50 (MKN-28): 407 nM | IC50 (A549): 60 nM | IC50 (HepG2): 222 nM | IC50 (K562): 150 nM | IC50 (MV4-11): 18 nM | IC50 (L02): 30900 nM | inhibition [6]: Dose-dependent effect | inhibition [7]: Dose-dependent effect | inhibition [8]: Dose-dependent effect | inhibition [9]: Dose-dependent effect | t1/2 [19]: 1.15 h | CLint [20]: 13.7 mL/min/kg | Stabilty [21]: 59.5% | IC50 (HCT-116 [5]): 120 nM | IC50 (MCF7): 40 nM
